# Reference: US7816535B2, “Vinyl-phenyl derivatives for inflammation and immune-related uses” (Synta Pharmaceuticals Corp., priority 2006, dated 2010)
# Counter-ions that a name gives are not always drawn.
# Test system: IL-2 production
# Assay: Inhibition of IL-2 production in PHA-activated Jurkat cells (ELISA)
# Type: cell-based
# Conditions: Homo sapiens, Jurkat, 20 h, PHA 2.5 μg/mL, IL-2 ELISA
# Method: Jurkat cells were placed in a 96 well plate (0.5 million cells per well in 1% FBS medium) then a test compound of this invention was added at different concentrations. After 10 minutes, the cells were activated with PHA (final concentration 2.5 μg/mL) and incubated for 20 hours at 37° C. under CO2. The final volume was 200 μL. Following incubation, the cells were centrifuged and the supernatants collected and stored at −70° C. prior to assaying for IL-2 production. A commercial ELISA kit (IL-2 Eli-pair, Diaclone Research, Besancon, France) was used to detect production of IL-2, from which dose response curves were obtained. The IC50 value was calculated as the concentration at which 50% of maximum IL-2 production after stimulation was inhibited versus a non-stimulation control.
row,SMILES,IC50 [nM]
1,"CC1=C(c2ccc(NC(=O)c3ccncc3F)cc2)CN(C(=O)Oc2ccc([N+](=O)[O-])cc2)CC1 [Compound 52, N-{4-[1-(4-nitro-phenyloxycarbonyl)-4-methyl-1,2,5,6-tetrahydro-pyridin-3-yl]-phenyl}-3-fluoro-isonicotinamide]",651
2,"CC(=O)OCC(C)=C(C)c1ccc(NC(=O)c2c(F)cccc2F)cc1 [Compound 96, 2,6-Difluoro-N-[4-(1,2-dimethyl-3-acetoxy-propenyl)-phenyl]-benzamide]",631
3,"O=CC1=C(c2ccc(NC(=O)c3c(F)cccc3F)cc2)CCCCC1 [Compound 37, 2,6-Difluoro-N-[4-(2-formyl-cyclohept-1-enyl)-phenyl]-benzamide]",774
4,"CCOC(=O)C1=C(c2ccc(NC(=O)c3c(F)cccc3F)cc2)CCN(C#N)C1 [Compound 56, 2,6-Difluoro-N-[4-(1-cyano-3-ethoxycarbonyl-1,2,5,6-tetrahydro-pyridin-4-yl)-phenyl]-benzamide]",> 1000
5,"CC(=O)N1CCC(C)=C(c2ccc(NC(=O)c3c(F)cccc3F)cc2)C1 [Compound 62, 2,6-Difluoro-N-[4-(1-acetyl-4-methyl-1,2,5,6-tetrahydro-pyridin-3-yl)-phenyl]-benzamide]",431
6,"O=C(Nc1ccc(C2=C(CO)CCCC2)cc1)c1c(F)cccc1F [Compound 22, N-[4-(2-hydroxymethyl-cyclohex-1-enyl)-phenyl]-2,6-difluoro-benzamide]",721
7,"CC1=C(c2ccc(NC(=O)c3ncncc3C)cc2)CN(c2nc(C)c(C)o2)CC1 [Compound 81, 5-Methyl-pyrimidine-4-carboxylic acid {4-[1-(4,5-dimethyl-oxazol-2-yl)-4-methyl-1,2,5,6-tetrahydro-pyridin-3-yl]-phenyl}-amide]",> 1000
8,"CCS(=O)(=O)N1CCC(C)=C(c2ccc(NC(=O)c3ccncc3C)cc2)C1 [Compound 60, N-[4-(1-ethanesulfonyl-4-methyl-1,2,5,6-tetrahydro-pyridin-3-yl)-phenyl]-3-methyl-isonicotinamide]",229
9,"CCOC(=O)N1CCC(C)=C(c2ccc(NC(=O)c3snnc3C)cc2)C1 [Compound 47, 4-Methyl-[1,2,3]thiadiazole-5-carboxylic acid [4-(1-ethoxycarbonyl-4-methyl-1,2,5,6-tetrahydro-pyridin-3-yl)-phenyl]-amide]",411
10,CC1=C(c2ccc(NC(=O)c3ccncc3F)cc2)CN(C#N)CC1 [Compound 57],> 1000
11,"CCOC(=O)N1CCC(C)=C(c2ccc(NC(=O)c3ccncc3C)cc2)C1 [Compound 48, N-[4-(1-ethoxycarbonyl-4-methyl-1,2,5,6-tetrahydro-pyridin-3-yl)-phenyl]-3-methyl-isonicotinamide]",156
12,"CC1=C(c2ccc(NC(=O)c3ccncc3F)cc2)CN(c2cncnc2)CC1 [Compound 90, N-[4-(1-pyrimidin-5-yl-4-methyl-1,2,5,6-tetrahydro-pyridin-3-yl)-phenyl]-3-fluoro-isonicotinamide]",126
13,"CCOC(=O)C1=C(c2ccc(NC(=O)c3c(F)cccc3F)cc2)CCN(C(=O)OC)CC1 [Compound 39, 2,6-Difluoro-N-[4-(1-methoxycarboxyl-5-ethoxycarbonyl-2,3,6,7-tetrahydro-1H-azepin-4-yl)-phenyl]-benzamide]",380
14,"O=CC1=C(c2ccc(NC(=O)c3c(F)cccc3F)cc2)CCC1 [Compound 32, 2,6-Difluoro-N-[4-(2-formyl-cyclopent-1-enyl)-phenyl]-benzamide]",> 1000
15,"O=C(Nc1ccc(C2=CCCCC2)cc1)c1ccncc1F [Compound 18, N-(4-Cyclohexenylphenyl)-3-fluoroisonicotinamide]",> 1000
16,"O=CC1=C(c2ccc(NC(=O)c3c(F)cccc3F)cc2)CN(c2nccs2)CC1 [Compound 78, 2,6-Difluoro-N-[4-(1-thiazol-2-yl-4-formyl-1,2,5,6-tetrahydro-pyridin-3-yl)-phenyl]-benzamide]",227
17,"CC1=C(c2ccc(NC(=O)c3ccncc3C)cc2)CN(S(=O)(=O)c2ccccc2)CC1 [Compound 61, N-[4-(1-phenylsulfonyl-4-methyl-1,2,5,6-tetrahydro-pyridin-3-yl)-phenyl]-3-methyl-isonicotinamide]",164
18,"COC(=O)N1CCC(c2nccs2)=C(c2ccc(NC(=O)c3c(F)cccc3F)cc2)C1 [Compound 41, 2,6-Difluoro-N-[4-(1-methoxycarbonyl-4-thiazol-2-yl-1,2,5,6-tetrahydro-pyridin-3-yl)-phenyl]-benzamide]",308

# The remaining lines, values ahead:
row,IC50 [nM],SMILES
1,81.3,"C=CCOC(=O)N1CCC(C)=C(c2ccc(NC(=O)c3ccncc3F)cc2)C1 [Compound 53, N-[4-(1-allyloxycarbonyl-4-methyl-1,2,5,6-tetrahydro-pyridin-3-yl)-phenyl]-3-fluoro-isonicotinamide]"
2,95,"CCOC(=O)N1C=C(c2ccc(NC(=O)c3c(F)cccc3F)cc2)C(C)CC1 (centres unmarked) [Compound 8, 5-[4-(2,6-difluoro-benzoylamino)-phenyl]-4-methyl-2,4-dihydro-2H-pyridine-1-carboxylic acid ethyl ester]"
3,22.8,"C=CC1=C(c2ccc(NC(=O)c3c(F)cccc3F)cc2)CCN(C(=O)OC)CC1 [Compound 40, 2,6-Difluoro-N-[4-(1-methoxycarbonyl-5-vinyl-2,3,6,7-tetrahydro-1H-azepin-4-yl)-phenyl]-benzamide]"
4,11,"C=C(C)[C@@H]1CCC(C)=C(c2ccc(NC(=O)c3ccncc3C)cc2)C1 [Compound 2, 3-Methyl-N-[4-(2-methyl-5(R)-isopropenyl-cyclohex-1-enyl)-phenyl]-isonicotinamide]"
5,9,"C=C(C)[C@H]1CCC(C)=C(c2ccc(NC(=O)c3ccncc3C)cc2)C1 [Compound 3, 3-Methyl-N-[4-(2-methyl-5(S)-isopropenyl-cyclohex-1-enyl)-phenyl]-isonicotinamide]"
6,48.9,"CC1=C(c2ccc(NC(=O)c3ccncc3C)cc2)CN(c2nccs2)CC1 [Compound 59, N-[4-(1-thiazol-2-yl-4-methyl-1,2,5,6-tetrahydro-pyridin-3-yl)-phenyl]-3-methyl-isonicotinamide]"
7,7.4,"O=C(Nc1ccc(C2=C(c3cnco3)CCCC2)cc1)c1c(F)cccc1F [Compound 23, N-[4-(2-oxazol-5-yl-cyclohex-1-enyl)-phenyl]-2,6-difluoro-benzamide]"
8,42.1,"CC1=C(c2ccc(NC(=O)c3ccncc3F)cc2)CN(c2ccccn2)CC1 [Compound 66, N-[4-(1-pyridin-2-yl-4-methyl-1,2,5,6-tetrahydro-pyridin-3-yl)-phenyl]-3-fluoro-isonicotinamide]"
9,12.4,"CC1=C(c2ccc(NC(=O)c3c(F)cccc3F)cc2)CN(c2ncco2)CC1 [Compound 70, 2,6-Difluoro-N-[4-(1-oxazol-2-yl-4-methyl-1,2,5,6-tetrahydro-pyridin-3-yl)-phenyl]-benzamide]"
10,99.3,"CC1=C(c2ccc(NC(=O)c3ncncc3C)cc2)CN(c2nccs2)CC1 [Compound 77, 5-Methyl-pyrimidine-4-carboxylic acid [4-(1-thiazol-2-yl-4-methyl-1,2,5,6-tetrahydro-pyridin-3-yl)-phenyl]-amide]"
11,68,"O=C(Nc1ccc(C2=C(c3cnco3)CCCC2)cc1)c1ccncc1F [Compound 24, N-[4-(2-oxazol-5-yl-cyclohexen-1-yl)-phenyl]-3-fluoroisonicotinamide]"
12,17.4,"CCC1=C(c2ccc(NC(=O)c3c(F)cccc3F)cc2)CCCC1 [Compound 29, N-[4-(2-ethyl-cyclohex-1-enyl)-phenyl]-2,6-difluoro-benzamide]"
13,20.5,"O=C(Nc1ccc(C2=C(c3cnco3)CCC2)cc1)c1c(F)cccc1F [Compound 34, 2,6-Difluoro-N-[4-(2-oxazol-5-yl-cyclopent-1-enyl)-phenyl]-benzamide]"
14,7.2,"CC1=C(c2ccc(NC(=O)c3c(F)cccc3F)cc2)CCCC1 [Compound 25, N-[4-(2-methyl-cyclohex-1-enyl)-phenyl]-2,6-difluoro-benzamide]"
15,11,"C=CC1=C(c2ccc(NC(=O)c3c(F)cccc3F)cc2)CCCC1 [Compound 101, N-[4-(2-vinyl-cyclohex-1-enyl)-phenyl]-2,6-difluoro-benzamide]"
16,7.7,"CC1=C(c2ccc(NC(=O)c3ccncc3F)cc2)CN(c2nccs2)CC1 [Compound 65, N-[4-(1-thiazol-2-yl-4-methyl-1,2,5,6-tetrahydro-pyridin-3-yl)-phenyl]-3-fluoro-isonicotinamide]"
17,7,"C=C(C)[C@@H]1CCC(C)=C(c2ccc(NC(=O)c3ccncc3F)cc2)C1 [Compound 4, 3-Fluoro-N-[4-(2-methyl-5(R)-isopropenyl-cyclohex-1-enyl)-phenyl]-isonicotinamide]"

# Same assay, conditions: Homo sapiens, PHA 2.5 μg/mL, 20 hours, IL-2 ELISA
row,SMILES,IC50 [nM]
1,"CC1=C(c2ccc(NC(=O)c3c(F)cccc3F)cc2)CCN(C)C1 [Compound 15, N-(4-(1,5-Dimethyl-1,2,3,6-tetrahydropyridin-4-yl)phenyl)-2,6-difluorobenzamide]",> 1000

# Same assay, conditions: PHA 2.5 μg/mL, 20 hours, IL-2 ELISA, dihydrochloride
row,IC50 [nM],SMILES
1,5,"CC1=C(c2ccc(NC(=O)c3ccncc3F)cc2)CN(c2nccs2)CC1 [Compound 74, N-[4-(1-thiazol-2-yl-4-methyl-1,2,5,6-tetrahydro-pyridin-3-yl)-phenyl]-3-fluoro-isonicotinamide, dihydrochloride]"

# Same assay, conditions: PHA 2.5 μg/mL, 20 hours, IL-2 ELISA, hydrochloride
row,IC50 [nM],SMILES
1,177,"CCOC(=O)N1CCC(C)=C(c2ccc(NC(=O)c3ccncc3C)cc2)C1 [Compound 50, N-[4-(1-ethoxycarbonyl-4-methyl-1,2,5,6-tetrahydro-pyridin-3-yl)-phenyl]-3-methyl-isonicotinamide, hydrochloride]"
